In patent US20050238580A1 (priority 2002, published 2005):

How the values were obtained:
[1] = molecular target: T1, intestinal lactase (Homo sapiens, UniProt P09848); assay: Excretion of xylose in urine of adult human volunteers after oral 4-galactosyl-xylose, colorimetric titration with fluoroglucinol; type: in vivo
T1 construct: from tissue; host or cells: small-intestinal mucous membrane of living adult human volunteers (in vivo)
Procedure: The methodology consists of the oral administration of an aqueous solution of 4-galactosyl-xylose to humans after at least 8 hours of fasting. The amount of xylose present in the urine excreted is evaluated as of then, after a specific period of time. The methodology can be carried out likewise by evaluating the presence of xylose in blood evaluating it in plasma, or blood serum, prepared from a blood sample extracted after a period of time, after the intake of the disaccharide. The titration of xylose can be done by means of calorimetric analysis based on the reaction with fluoroglucinol and using as a target, either the basal urine or else the basal plasma or the basal blood serum, depending on the methodology that is used. Once the intake of 4-galactosyl-xylose has taken place, it is hydrolyzed by the intestinal lactase, in such a way that the products of this enzymatic reaction, galactose and xylose, are absorbed into the blood through the intestinal mucous membrane.
4-galactosyl-xylose is an in vivo substrate of human intestinal lactase. This has been shown in the first place by orally administering 1 g of 4-galactosyl-xylose dissolved in 50 ml of water to an adult volunteer (individual 1) who had fasted for 8 hours and with a normal tolerance to milk and milk products, in other words, with lactose tolerance. A basal urine sample was taken from this individual immediately before the intake of 4-galactosyl-xylose and urine was again collected after the intake thereof every hour for 8 hours, each sample showing the total urine excreted in each period of time. Xylose was titrated in all the samples by means of calorimetric analysis based on the reaction with fluoroglucinol and using basal urine as the target. […] The results of this experiment appear compiled in FIG. 3, where the amount of xylose evaluated in each sample is represented (white circles) and the amount of xylose that is being accumulated in urine over time is represented (black circles), calculated by adding to the amount of xylose evaluated in each sample, the amounts evaluated in all the preceding samples. In […] one can see: 1) That xylose is excreted in the urine of this individual after oral administration of 4-galactosyl-xylose; 2) That the excretion of xylose in urine was maximum after 2 hours and it was progressively accumulated in the urine after administration of this compound.
Excretion of xylose in urine by adult human volunteers with lactose tolerance varies according to the amount of the 4-galactosyl-xylose intake. This has been shown by administering 0.25 g, 0.5 g and 3 g of 4-galactosyl-xylose to an adult volunteer with lactose tolerance (individual 1, Example 4) and to an adult volunteer with lactose tolerance (individual 2, Example 5) under the same conditions as those described in Example 1 and likewise titrating xylose calorimetrically with fluoroglucinol in the urine excreted by both volunteers over time after the intake of the disaccharide. A free period of around one week was left between each intake of 4-galactosyl-xylose by the same individual. […] The results of these experiments are compiled in FIG. 4 panel A (for individual 1 and Example 4) and in FIG. 4 panel B (for individual 2 and Example 5), wherein the amount of xylose accumulated in urine after the intake of 4-galactosyl-xylose for each administered dose is represented. FIG. 4A includes the data obtained with the same individual after an intake of 1 g of the disaccharide coming from FIG. 3 so that a comparison can be made with the rest of the administered doses. In these FIGS. 4A and 4B one can see: 1) That the excretion of xylose in urine over time after the intake of 4-galactosyl-xylose increased as the amount administered to individual 1 (FIG. 4A), as well as to individual 2 (FIG. 4B) increased; That a dose of 0.25 g 4-galactosyl-xylose permitted easy detection of the presence of xylose in urine in either of these two individuals. […]

[2] = molecular target: T1, intestinal lactase; assay: Xylose in urine of human volunteers after oral 4-galactosyl-xylose, evaluated by gas chromatography; type: in vivo; details: 0.25 g oral
Text: Excretion of xylose in urine after administration of 0.25 g of 4-galactose-xylose to subjects with lactose tolerance, and its reduction in hypolactasic individuals with lactose intolerance is likewise observed by the evaluation technique of xylose different from the colorimetric reaction with fluoroglucinol. This has been shown by administering 0.25 g of 4-galactosyl-xylose to a volunteer with lactose tolerance [individual 1 (also studied in Example 3), Example 15] on one hand, and on the other hand, to a volunteer with lactose intolerance having an intense intestinal lactase deficiency [individual 12 (also studied in Example 12), Example 16], and evaluating xylose by gas chromatography in the total urine collected 3 hours after the intake of the disaccharide with a chromatograph equipped with a flame ionization detector and a 12 m long glass spiral column with an inside diameter of 0.2 mm and a thickness of 0.3 μm. The presence of xylose in urine was detected in its trimethylsilyl derivative form. For this purpose the urine sample was lyophilized and dissolved in 20 μl of pyridine containing 1 mM of benzyl-β-D-xylopyranoside as an internal reference. Then another 20 μl of N-trimethylsilyl imidazole were added as a sililating agent. The mixture was treated with ultrasound for one minute and heated at 60° C. for 30 minutes. Then 1-2 μl of the sample was injected into the gas chromatograph. The temperature of the injector and the detector used was 250° C. and the temperature gradient in the column was the following: 2 minutes at 180° C. and a 5° C. increase per minute until 250° C. was reached. This temperature was maintained for 15 minutes. The concentration of xylose in each sample was calculated from the areas of the peaks corresponding to the chromatograms. The results of these experiments are compiled in FIG. 7, wherein the chromatograms corresponding to the samples of basal urine and of urine taken during 3 hours from an individual with lactose tolerance and an individual with lactose intolerance are shown. […]

T1 sequence (P09848 869-1927): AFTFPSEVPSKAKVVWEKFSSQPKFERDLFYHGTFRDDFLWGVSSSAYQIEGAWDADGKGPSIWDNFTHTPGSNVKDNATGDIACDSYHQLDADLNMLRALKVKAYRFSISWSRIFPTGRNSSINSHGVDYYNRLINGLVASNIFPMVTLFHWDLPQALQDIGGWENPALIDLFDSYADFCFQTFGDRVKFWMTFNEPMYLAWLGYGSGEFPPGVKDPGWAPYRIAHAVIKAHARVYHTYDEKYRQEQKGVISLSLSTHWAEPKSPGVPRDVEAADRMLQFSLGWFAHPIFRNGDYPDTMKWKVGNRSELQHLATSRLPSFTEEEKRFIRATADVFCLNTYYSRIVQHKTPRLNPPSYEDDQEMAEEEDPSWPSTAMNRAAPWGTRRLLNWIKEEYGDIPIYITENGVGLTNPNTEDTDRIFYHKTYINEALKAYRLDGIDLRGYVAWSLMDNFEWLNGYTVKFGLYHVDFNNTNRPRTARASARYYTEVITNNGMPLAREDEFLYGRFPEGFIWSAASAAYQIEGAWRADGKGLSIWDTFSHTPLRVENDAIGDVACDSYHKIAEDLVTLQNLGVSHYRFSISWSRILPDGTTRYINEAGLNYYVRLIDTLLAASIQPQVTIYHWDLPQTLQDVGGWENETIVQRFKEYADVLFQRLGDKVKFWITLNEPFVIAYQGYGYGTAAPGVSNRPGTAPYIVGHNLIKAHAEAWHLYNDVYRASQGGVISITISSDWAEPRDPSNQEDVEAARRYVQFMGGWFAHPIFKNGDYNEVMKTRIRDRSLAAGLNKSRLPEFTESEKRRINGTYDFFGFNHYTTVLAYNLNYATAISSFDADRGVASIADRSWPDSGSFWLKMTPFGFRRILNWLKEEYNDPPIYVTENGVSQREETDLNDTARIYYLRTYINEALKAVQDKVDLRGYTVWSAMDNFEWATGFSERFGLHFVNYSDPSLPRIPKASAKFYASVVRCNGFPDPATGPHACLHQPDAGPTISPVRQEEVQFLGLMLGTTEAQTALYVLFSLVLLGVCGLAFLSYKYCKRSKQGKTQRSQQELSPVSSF

Compound: OCC1O[C@@H](O[C@@H]2COC(O)C(O)[C@H]2O)C(O)[C@@H](O)[C@H]1O (some centres unmarked)
- total xylose in urine 8 hours after intake, average value ([1]; female volunteers with lactose tolerance, 0.25 g oral): 23.5 ± 2.0 mg
- reduction of xylose in urine versus average of tolerant females ([1]; individual 5, 0.25 g oral, 8 hours): 83%
- total xylose in urine 8 hours after intake ([1]; individual 5, person with lactose intolerance from birth, 0.25 g oral): 4.08 mg
- reduction of xylose in urine versus average of tolerant males ([1]; individual 12, 0.25 g oral, 8 hours): 96%
- total xylose in urine 8 hours after intake ([1]; individual 12, hypolactasic person with lactose intolerance, 0.25 g oral): 1.33 mg
- total xylose excreted in urine after 8 hours ([1]; individual 13, person with allergy to milk components, 0.25 g oral): the same total amount as the average of females with lactose tolerance
- dose dependence of excretion of xylose in urine ([1]; individuals 1 and 2 with lactose tolerance, oral doses of 0.25 g, 0.5 g, 1 g and 3 g): increased with the amount
- total xylose in urine 8 hours after intake, average value ([1]; male volunteers with lactose tolerance, 0.25 g oral): 35.7 ± 2.0 mg
- reduction of xylose in urine, individual 12 versus individual 1 ([2]; urine of 3 hours): 92%
- total amount of xylose in urine of 3 hours ([2]; hypolactasic individual 12 with lactose intolerance): 2.1 mg
- total xylose in urine of 3 hours ([2]; individual 1 with lactose tolerance): 25.2 mg
